Experimental data as given in patent US20140057332A1, “GLUCO-OLIGOSACCHARIDE OXIDASES FROM ACREMONIUM STRICTUM AND USES THEREOF” (The Governing Council of the University of Toronto, priority 2011, published 2014).

T1: Acremonium strictum gluco-oligosaccharide oxidase GOOX-VN variant 2 Y300N, SEQ ID NO. 7 (Sarocladium strictum, UniProt D7PF15, A38V/S388N/Y300N)
T1 sequence (D7PF15 1-474 A38V/Y300N/S388N): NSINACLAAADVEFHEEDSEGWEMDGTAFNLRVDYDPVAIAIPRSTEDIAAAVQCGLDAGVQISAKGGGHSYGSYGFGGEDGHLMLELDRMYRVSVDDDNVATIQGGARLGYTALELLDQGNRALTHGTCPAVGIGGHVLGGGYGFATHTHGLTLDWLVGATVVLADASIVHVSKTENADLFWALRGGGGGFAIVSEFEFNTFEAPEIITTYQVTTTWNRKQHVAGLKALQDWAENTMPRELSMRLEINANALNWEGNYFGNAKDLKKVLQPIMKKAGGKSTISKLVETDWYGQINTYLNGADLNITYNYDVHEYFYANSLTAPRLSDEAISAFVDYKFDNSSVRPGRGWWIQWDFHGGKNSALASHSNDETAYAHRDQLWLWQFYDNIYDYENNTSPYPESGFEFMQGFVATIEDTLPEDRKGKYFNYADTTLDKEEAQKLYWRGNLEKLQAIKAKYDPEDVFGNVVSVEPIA

T2: Acremonium strictum gluco-oligosaccharide oxidase GOOX-VN variant 3 W351F, SEQ ID NO. 8 (Sarocladium strictum, UniProt D7PF15, A38V/S388N/W351F)
T2 sequence (D7PF15 1-474 A38V/W351F/S388N): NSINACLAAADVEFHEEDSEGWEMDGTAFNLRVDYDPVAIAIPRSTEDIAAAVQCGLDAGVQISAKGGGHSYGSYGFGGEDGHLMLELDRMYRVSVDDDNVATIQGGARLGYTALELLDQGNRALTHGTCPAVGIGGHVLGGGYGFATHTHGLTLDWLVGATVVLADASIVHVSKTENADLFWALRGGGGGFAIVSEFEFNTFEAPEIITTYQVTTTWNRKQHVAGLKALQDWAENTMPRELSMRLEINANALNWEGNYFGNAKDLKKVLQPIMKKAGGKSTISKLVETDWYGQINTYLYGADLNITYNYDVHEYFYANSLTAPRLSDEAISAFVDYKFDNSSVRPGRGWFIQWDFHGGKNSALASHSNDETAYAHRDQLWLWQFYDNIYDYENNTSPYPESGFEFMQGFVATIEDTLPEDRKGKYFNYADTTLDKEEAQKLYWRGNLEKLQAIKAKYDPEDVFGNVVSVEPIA

T3: Acremonium strictum gluco-oligosaccharide oxidase GOOX-VN (type strain CBS 346.70, V38 and N388), SEQ ID NO. 2 (Sarocladium strictum, UniProt D7PF15, A38V/S388N)
T3 sequence (D7PF15 1-474 A38V/S388N): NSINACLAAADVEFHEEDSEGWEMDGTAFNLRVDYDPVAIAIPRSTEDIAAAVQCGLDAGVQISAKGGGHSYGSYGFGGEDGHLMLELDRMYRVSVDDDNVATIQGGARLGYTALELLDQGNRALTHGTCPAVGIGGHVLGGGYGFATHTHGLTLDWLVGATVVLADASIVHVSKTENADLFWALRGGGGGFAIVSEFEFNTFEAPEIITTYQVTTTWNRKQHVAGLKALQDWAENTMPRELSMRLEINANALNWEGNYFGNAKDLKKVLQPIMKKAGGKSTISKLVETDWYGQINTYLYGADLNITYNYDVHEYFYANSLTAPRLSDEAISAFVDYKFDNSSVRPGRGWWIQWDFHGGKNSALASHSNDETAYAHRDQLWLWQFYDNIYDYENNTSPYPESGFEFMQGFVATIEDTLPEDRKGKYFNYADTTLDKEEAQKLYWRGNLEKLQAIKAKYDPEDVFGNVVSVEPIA

T4: Acremonium strictum gluco-oligosaccharide oxidase GOOX-VN variant 1 Y300A, SEQ ID NO. 6 (Sarocladium strictum, UniProt D7PF15, A38V/S388N/Y300A)
T4 sequence (D7PF15 1-474 A38V/Y300A/S388N): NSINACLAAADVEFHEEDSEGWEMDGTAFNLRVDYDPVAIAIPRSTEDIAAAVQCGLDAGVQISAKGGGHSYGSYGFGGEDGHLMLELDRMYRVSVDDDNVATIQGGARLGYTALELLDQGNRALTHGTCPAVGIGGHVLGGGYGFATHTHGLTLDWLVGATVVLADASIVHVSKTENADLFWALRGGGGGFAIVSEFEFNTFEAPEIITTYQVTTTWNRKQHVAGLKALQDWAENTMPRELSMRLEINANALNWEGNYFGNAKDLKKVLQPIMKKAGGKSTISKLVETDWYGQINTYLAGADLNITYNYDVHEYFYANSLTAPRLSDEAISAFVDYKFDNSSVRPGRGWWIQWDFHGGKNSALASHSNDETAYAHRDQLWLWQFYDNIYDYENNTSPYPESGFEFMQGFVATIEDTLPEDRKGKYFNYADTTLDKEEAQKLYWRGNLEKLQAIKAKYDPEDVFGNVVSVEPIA


How the values were obtained:
[1] = biological target: T1, Acremonium strictum gluco-oligosaccharide oxidase GOOX-VN variant 2 Y300N, SEQ ID NO. 7; assay: Enzymatic assay, kinetic analysis (chromogenic H2O2 assay) of Y300N; settings: 37° C., pH 8.0
Experimental: (§1) A chromogenic assay was used to measure hydrogen peroxide production (15). Reactions contained 0.1 mM 4aminoantipyrine (4AA), 1 mM phenol, 0.5 U horseradish peroxidase, 40 mM Tris-HCl (pH 8.0), and different substrates were initiated by adding 0.2 μg of enzymes to the 250 μL reaction mixture. The production of H2O2 was coupled to the oxidation of 4aminoantipyrine by horseradish peroxidase and detected at 500 nm. Reactions were incubated at 37° C. for 15 min to measure the specific activity of GOOX on 10 mM of monosaccharide or 1 mM of oligosaccharide.
(§2) At least 12 substrate concentrations were included to obtain kinetic parameters for each substrate. Initial rates were obtained by measuring reaction products every 30 s for 15 min at 37° C. and pH 8.0, and kinetic parameters were calculated using the Michaelis-Menten equation (GraphPad Prism5 Software).

[2] = biological target: T2, Acremonium strictum gluco-oligosaccharide oxidase GOOX-VN variant 3 W351F, SEQ ID NO. 8; assay: Enzymatic assay, kinetic analysis (chromogenic H2O2 assay) of W351F; settings: for kcat: 37° C., pH 8.0
Experimental: as §1, §2

[3] = biological target: T3, Acremonium strictum gluco-oligosaccharide oxidase GOOX-VN (type strain CBS 346.70, V38 and N388), SEQ ID NO. 2; assay: Enzymatic assay, kinetic analysis (chromogenic H2O2 assay) of GOOX-VN; settings: for kcat: 37° C., pH 8.0
Experimental: as §1, §2

[4] = biological target: T4, Acremonium strictum gluco-oligosaccharide oxidase GOOX-VN variant 1 Y300A, SEQ ID NO. 6; assay: Enzymatic assay, kinetic analysis (chromogenic H2O2 assay) of Y300A; settings: 37° C., pH 8.0
Experimental: as §1, §2

[5] = Chromogenic H2O2 oxidase assay on xylopentaose; settings: 1 mM xylopentaose; 37° C., 15 min
Experimental: as §1
(§3) An additional eight mutations, identified as Y72F, Y72A, E247A, E314A, W351A, N388S, Q353N, Q384A, were created in GOOX-VN to assess the influence of these residues on the substrate selectivity of GOOX-VN. […] The specific activity of each mutant was then measured at 37° C. for 15 min using 10 mM mono-sugars and 1 mM oligosaccharides as performed for Y300A, Y300N, and W351F (Table 11).

[6] = Chromogenic H2O2 oxidase assay / kinetic analysis on cellotriose; settings: 1 mM cellotriose; 37° C., 15 min
Experimental: as §1, §2

[7] = Chromogenic H2O2 oxidase assay / kinetic analysis on cellobiose; settings: 1 mM cellobiose; 37° C., 15 min
Experimental: as §1, §2

[8] = Chromogenic H2O2 oxidase assay on xylohexaose; settings: 1 mM xylohexaose; 37° C., 15 min
Experimental: as §1, §3

[9] = Chromogenic H2O2 oxidase assay / kinetic analysis on xylobiose; settings: 1 mM xylobiose; 37° C., 15 min
Experimental: as §1, §2

[10] = Chromogenic H2O2 oxidase assay / kinetic analysis on xylotriose; settings: 1 mM xylotriose; 37° C., 15 min
Experimental: as §1, §2

[11] = Chromogenic H2O2 oxidase assay on xylotetraose; settings: 1 mM xylotetraose; 37° C., 15 min
Experimental: as §1, §3

Molecule | kcat [1] | kcat [2] | kcat [3] | kcat [4] | change of Km versus GOOX-VN (in words) ([2]; W351F compared with GOOX-VN) | Specific Activity of Enzyme Variants [6] | Specific Activity of Enzyme Variants [7] | also measured
CC(=O)N[C@H]1C(O)O[C@H](CO)[C@@H](O)[C@@H]1O (stereo partly drawn) [NAG, N-acetylglucosamine] | 11.34 ± 0.113 s⁻¹ | 7.785 ± 0.718 s⁻¹ | 8.078 ± 0.203 s⁻¹ | – | – | – | – | –
OC1OC[C@@H](O)[C@H](O)[C@H]1O (stereo partly drawn) [Xylose, xylose] | 9.932 ± 0.172 s⁻¹ | 4.618 ± 0.0633 s⁻¹ | 5.248 ± 0.15 s⁻¹ | 11.33 ± 0.137 s⁻¹ | increased | – | – | –
OC[C@H]1O[C@@H](O[C@H]2[C@H](O)[C@@H](O)C(O)O[C@@H]2CO)[C@H](O)[C@@H](O)[C@@H]1O (stereo partly drawn) [Cellobiose, cellobiose] | 11.4 ± 0.187 s⁻¹ | – | – | 13.72 ± 0.258 s⁻¹ | – | – | – | –
OC[C@H]1OC(O)[C@H](O)[C@@H](O)[C@H]1O (stereo partly drawn) [Galactose, galactose] | 11.76 ± 0.0883 s⁻¹ | 6.56 ± 0.075 s⁻¹ | 7.152 ± 0.137 s⁻¹ | 13.3 ± 0.245 s⁻¹ | decreased | – | – | change of catalytic efficiency versus GOOX-VN (in words) ([2]; W351F compared with GOOX-VN): higher catalytic efficiency
OC1OC[C@@H](O[C@@H]2OC[C@@H](O)[C@H](O)[C@H]2O)[C@H](O)[C@H]1O (stereo partly drawn) [Xylobiose, xylobiose] | 11.96 ± 0.125 s⁻¹ | – | – | 13.29 ± 0.122 s⁻¹ | – | – | – | –
OC[C@H]1OC(O)[C@H](O)[C@@H](O)[C@@H]1O (stereo partly drawn) [Glucose, glucose] | 10.81 ± 0.103 s⁻¹ | 5.622 ± 0.08 s⁻¹ | 7.485 ± 0.0917 s⁻¹ | 13.22 ± 0.24 s⁻¹ | increased | – | – | catalytic efficiency (in words) ([3]; among glucose, xylose, galactose, NAG): highest catalytic efficiency
OC1OC[C@@H](O[C@@H]2OC[C@@H](O[C@@H]3OC[C@@H](O)[C@H](O)[C@H]3O)[C@H](O)[C@H]2O)[C@H](O)[C@H]1O (stereo partly drawn) [Xylotriose, xylotriose] | 11.97 ± 0.185 s⁻¹ | – | – | 13.87 ± 0.11 s⁻¹ | – | – | – | –
Y72F: GOOX-VN mutant with Y72F substitution (protein) NSINACLAAADVEFHEEDSEGWEMDGTAFNLRVDYDPVAIAIPRSTEDIAAAVQCGLDAGVQISAKGGGHSFGSYGFGGEDGHLMLELDRMYRVSVDDDNVATIQGGARLGYTALELLDQGNRALTHGTCPAVGIGGHVLGGGYGFATHTHGLTLDWLVGATVVLADASIVHVSKTENADLFWALRGGGGGFAIVSEFEFNTFEAPEIITTYQVTTTWNRKQHVAGLKALQDWAENTMPRELSMRLEINANALNWEGNYFGNAKDLKKVLQPIMKKAGGKSTISKLVETDWYGQINTYLYGADLNITYNYDVHEYFYANSLTAPRLSDEAISAFVDYKFDNSSVRPGRGWWIQWDFHGGKNSALASHSNDETAYAHRDQLWLWQFYDNIYDYENNTSPYPESGFEFMQGFVATIEDTLPEDRKGKYFNYADTTLDKEEAQKLYWRGNLEKLQAIKAKYDPEDVFGNVVSVEPIA | – | – | – | – | – | 0.5 µmol/min/mg | 0.2 µmol/min/mg | Specific Activity of Enzyme Variants [5]: 0.4 µmol/min/mg
Q384A: GOOX-VN mutant with Q384A substitution (protein) NSINACLAAADVEFHEEDSEGWEMDGTAFNLRVDYDPVAIAIPRSTEDIAAAVQCGLDAGVQISAKGGGHSYGSYGFGGEDGHLMLELDRMYRVSVDDDNVATIQGGARLGYTALELLDQGNRALTHGTCPAVGIGGHVLGGGYGFATHTHGLTLDWLVGATVVLADASIVHVSKTENADLFWALRGGGGGFAIVSEFEFNTFEAPEIITTYQVTTTWNRKQHVAGLKALQDWAENTMPRELSMRLEINANALNWEGNYFGNAKDLKKVLQPIMKKAGGKSTISKLVETDWYGQINTYLYGADLNITYNYDVHEYFYANSLTAPRLSDEAISAFVDYKFDNSSVRPGRGWWIQWDFHGGKNSALASHSNDETAYAHRDQLWLWAFYDNIYDYENNTSPYPESGFEFMQGFVATIEDTLPEDRKGKYFNYADTTLDKEEAQKLYWRGNLEKLQAIKAKYDPEDVFGNVVSVEPIA | – | – | – | – | – | 0.4 µmol/min/mg | 0.2 µmol/min/mg | Specific Activity of Enzyme Variants [8]: 0.1 µmol/min/mg
Y72A: GOOX-VN mutant with Y72A substitution (protein) NSINACLAAADVEFHEEDSEGWEMDGTAFNLRVDYDPVAIAIPRSTEDIAAAVQCGLDAGVQISAKGGGHSAGSYGFGGEDGHLMLELDRMYRVSVDDDNVATIQGGARLGYTALELLDQGNRALTHGTCPAVGIGGHVLGGGYGFATHTHGLTLDWLVGATVVLADASIVHVSKTENADLFWALRGGGGGFAIVSEFEFNTFEAPEIITTYQVTTTWNRKQHVAGLKALQDWAENTMPRELSMRLEINANALNWEGNYFGNAKDLKKVLQPIMKKAGGKSTISKLVETDWYGQINTYLYGADLNITYNYDVHEYFYANSLTAPRLSDEAISAFVDYKFDNSSVRPGRGWWIQWDFHGGKNSALASHSNDETAYAHRDQLWLWQFYDNIYDYENNTSPYPESGFEFMQGFVATIEDTLPEDRKGKYFNYADTTLDKEEAQKLYWRGNLEKLQAIKAKYDPEDVFGNVVSVEPIA | – | – | – | – | – | 2.1 µmol/min/mg | 1.1 µmol/min/mg | Specific Activity of Enzyme Variants [9]: 0.5 µmol/min/mg; Specific Activity of Enzyme Variants [5]: 3.2 µmol/min/mg; Specific Activity of Enzyme Variants [8]: 2.2 µmol/min/mg; Specific Activity of Enzyme Variants [10]: 1.3 µmol/min/mg; Specific Activity of Enzyme Variants [11]: 2.5 µmol/min/mg
